Data published in patent US11974981B2, “Methods and compositions for treating endometriosis and endometriosis associated symptoms” (The Board of Trustees of the Leland Stanford Junior …, priority 2017, dated 2024).
Entries after “also recorded” stand apart in the source; their conditions may differ.

Tests used:
[1] = system: female Sprague-Dawley rats; test: acetaldehyde-induced vaginal hyperalgesia, escape response to vaginal balloon distention; format: in vivo, rat; conditions: Alda-1 1 mg/kg i.p. alone, in the absence of the noxious stimulus
Source text: FIG. 1A-1C. Alda-1 mitigates acetaldehyde-induced vaginal hyperalgesia in rats. FIG. 1A Five female Sprague-Dawley rats initially weighing 150-175 g were trained over a period of ˜4 weeks to terminate an escape response from the noxious stimuli produced by a balloon inflated in the vagina. Top image: Rats trained to be accustomed to the testing chamber. Bottom image: The escape response assessed by the rat poking its head into a tube. This response in turn breaks an infrared beam and causes the vaginal balloon to deflate. […] The shaded area is calculated as the area under the curve. n=5 rats/volume FIG. 1C Histogram of vaginal escape response expressed as the area under the curve calculated using standard trapezoid methods. […]
Alda and endonetriosis: Although rodent inflammatory pain models such as carageenan and CFA may represent some aspects of endometriosis, there is a validated rat model of endometriosis-associated pain, which produces signs and painful symptoms similar to those in women (S. McAllister, K. McGinty, D. Resuehr, K. Berkley. Endometriosis-induced vaginal hyperalgesia in the rat: Role of the ectopic growths and their innervation. Pain. 147: 255-264 (2009)). […] The rat is then monitored to determine an escape response, which is assessed by the rodent breaking an infrared beam with its nose; this, in turn, causes the inflated balloon in the vagina to deflate (FIG. 1A). […]

[2] = system: wild type C57/BL6 mice; test: mouse surgical model of endometriosis, endometrial cyst area, wild type mice; format: in vivo; conditions: vs DMSO
Source text: (§1) FIG. 2A-2C. Relative to wild type mice, ALDH2*2 mice develop larger endometrial cysts by 3 days after endometriosis surgery. FIG. 2A In a mouse surgical model of endometriosis, three (2 mm×2 mm) uterine horn auto transplants are sutured onto cascading mesenteric arteries which in turn since located outside the uterus develop cysts in the abdomen. FIG. 2B Female wild type (C57/BL6) and ALDH2*2 knock-in mice on the same genetic background 8-10 weeks of age were induced with endometriosis and sacrificed 1, 3, or 28 days later. Endometrial cysts were collected and cyst area was measured (length×width). FIG. 2C Average cyst area was calculated for each group (wild type: blue, ALDH2*2: red) of mice at day 1, 3, and 28. Data are presented as mean±SEM, n=6 mice/group.
(§2) FIG. 3A-3D. Alda-1 reduces endometrial cyst size 3 days and 28 days after endometriosis induction. FIG. 3A. […] FIG. 3B. […]
(§3) Briefly, mice were anesthetized with isoflurane (1-3%) and an off-midline (left side) incision made through the skin and muscle layer to expose the pelvic and abdominal organs. […] On day 1, 3, or 28 after endometriosis induction, mice were sacrificed, endometrial cyst length and width measured to calculate cyst area, and then the average cyst area per group determined.

[3] = system: homozygous ALDH2*2 knock-in mice; test: mouse surgical model of endometriosis, endometrial cyst area, ALDH2*2 knock-in mice; format: in vivo; conditions: ALDH2*2 mice, vs DMSO
Source text: as §1, §2, §3

[4] = system: rodent models of inflammatory pain; conditions: earlier work of the inventors; cited from earlier work
[5] = Alda-1 5 mg/kg subcutaneous Alzet pump for 3 days

O=C(NCc1ccc2c(c1)OCO2)c1c(Cl)cccc1Cl [Alda-1, N-(1,3-benzodioxol-5-ylmethyl)-2,6-dichlorobenzamide]
vaginal escape response (area under the curve), effect of compound alone [1]: No effect | average endometrial cyst area [2, 5]: significant reduction | average endometrial cyst area ([2]; Alda-1 5 mg/kg subcutaneous Alzet pump for 28 days, 5 mg/kg): significant reduction; also recorded: significantly reduced | average endometrial cyst area [3, 5]: significant reduction; also recorded: significantly reduced | average endometrial cyst area ([3]; Alda-1 5 mg/kg subcutaneous Alzet pump for 28 days): significant reduction; also recorded: significantly reduced | pain thresholds [4]: increases pain thresholds
